≈ marks a conversion by molar mass, not a printed value. Where two headings read alike, the source gives them in different places.
Columns and labels:
[1] = system: Staph. aureus 50,774; assay: Systemic infection in mice; assay type: in vivo; conditions: Staphylococcus aureus, po, 336 h
Procedure: (§1) The activity of the compounds according to the invention against systemic infections in mice, caused by Staphylococcus 50,774, Streptococcus pyogenes A 65, Pseudomonas aeruginosa No. 12 and Escherichia coli P 5101, has been studied.
(§2) The infections were set up by intraperitoneal injection of a suspension of the bacterial culture corresponding to the germ studied. The products were administered orally at the time of injection, and 6 hours later. […] Aureus and for 7 days for the other germs.
(§3) Oxolinic acid was used as the reference substance.

[2] = system: Escherichia coli P 5101; assay: Systemic infection in mice; assay type: in vivo; conditions: P5101, po, 168 h
Procedure: as §1, §2, §3

[3] = system: Strept. pyogenes A. 65; assay: Systemic infection in mice; assay type: in vivo; conditions: Streptococcus pyogenes, A.65, po, 168 h
Procedure: as §1, §2, §3

[4] = system: Pseudomonas aeruginosa No. 12; assay: Systemic infection in mice; assay type: in vivo; conditions: NO.12, po, 168 h
Procedure: as §1, §2, §3

[5] = system: Salm. typhi 0901; assay: microbe, parasite or virus in culture; assay type: cell-based; conditions: Salmonella enterica, 18 h
Procedure: (§4) After sterilisation at 120° C., the pH was 6.8.
(§5) The minimum inhibitory concentrations (M.I.C.) were determined by dilution of the test compounds in this mixture, the concentration ranging from 0.05 to 100 μg/cm^3 in a geometric progression with a factor of 2.
(§6) The inoculation of the dishes was carried out by means of a multiple inoculator with 10^-3 dilutions of 18 hour old broth cultures.
(§7) The dishes were placed in an oven at 37° C. and the readings were taken afer an incubation time of 18 hours. The M.I.C. was taken as the lowest concentration which inhibited a culture.

[6] = system: Pr. mirabilis Nig; assay: M.I.C. in vitro, nutrient agar dilution; assay type: cell-based; conditions: Proteus mirabilis, 18 h, read-out: M.I.C.
Procedure: as §4, §5, §6, §7

[7] = system: S. enteritidis Danysz; assay: M.I.C. in vitro, nutrient agar dilution; assay type: cell-based; conditions: Salmonella enterica, 18 h, read-out: M.I.C.
Procedure: as §4, §5, §6, §7

[8] = system: Staph. 9.144; assay: M.I.C. in vitro, nutrient agar dilution; assay type: cell-based; conditions: 18 h, read-out: M.I.C.
Procedure: as §4, §5, §6, §7

[9] = system: Sh. sonnei I.P.S.; assay: M.I.C. in vitro, nutrient agar dilution; assay type: cell-based; conditions: Shigella sonnei, 18 h, read-out: M.I.C.
Procedure: as §4, §5, §6, §7

[10] = system: Serratia; assay: M.I.C. in vitro, nutrient agar dilution; assay type: cell-based; conditions: 18 h, read-out: M.I.C.
Procedure: as §4, §5, §6, §7

[11] = system: Esch. coli 95 I.S.M.; assay: M.I.C. in vitro, nutrient agar dilution; assay type: cell-based; conditions: Escherichia coli, 18 h, read-out: M.I.C.
Procedure: as §4, §5, §6, §7

[12] = system: Pr. vulgaris 12-53; assay: M.I.C. in vitro, nutrient agar dilution; assay type: cell-based; conditions: Proteus vulgaris, 1253, 18 h, read-out: M.I.C.
Procedure: as §4, §5, §6, §7

[13] = system: Esch. coli 111 B4; assay: M.I.C. in vitro, nutrient agar dilution; assay type: cell-based; conditions: Escherichia coli, 18 h
Procedure: as §4, §5, §6, §7

[14] = system: Ps. aeruginosa A.22; assay: M.I.C. in vitro, nutrient agar dilution; assay type: cell-based; conditions: Pseudomonas aeruginosa, 18 h, read-out: M.I.C.
Procedure: as §4, §5, §6, §7

[15] = system: Staph. 209 P; assay: M.I.C. in vitro, nutrient agar dilution; assay type: cell-based; conditions: 18 h, read-out: M.I.C.
Procedure: as §4, §5, §6, §7

[16] = system: Pr. morganii A.236; assay: M.I.C. in vitro, nutrient agar dilution; assay type: cell-based; conditions: Morganella morganii, 18 h, read-out: M.I.C.
Procedure: as §4, §5, §6, §7

[17] = system: Klebs. pneum. 10.031; assay: M.I.C. in vitro, nutrient agar dilution; assay type: cell-based; conditions: 18 h, read-out: M.I.C.
Procedure: as §4, §5, §6, §7

[18] = system: B. subtilis; assay: M.I.C. in vitro, nutrient agar dilution; assay type: cell-based; conditions: Bacillus subtilis, 18 h, read-out: M.I.C.
Procedure: as §4, §5, §6, §7

[19] = system: Ps. aeruginosa 72.345; assay: M.I.C. in vitro, nutrient agar dilution; assay type: cell-based; conditions: Pseudomonas aeruginosa, 18 h, read-out: M.I.C.
Procedure: as §4, §5, §6, §7

[20] = system: S. oranienburg 1066; assay: M.I.C. in vitro, nutrient agar dilution; assay type: cell-based; conditions: Salmonella enterica, 18 h, read-out: M.I.C.
Procedure: as §4, §5, §6, §7

[21] = system: Providentia 0223; assay: M.I.C. in vitro, nutrient agar dilution; assay type: cell-based; conditions: 18 h, read-out: M.I.C.
Procedure: as §4, §5, §6, §7

[22] = system: Strepto A 561; assay: M.I.C. in vitro, nutrient agar dilution; assay type: cell-based; conditions: 18 h
Procedure: as §4, §5, §6, §7

[23] = system: Arizona 6.211; assay: M.I.C. in vitro, nutrient agar dilution; assay type: cell-based; conditions: 18 h, read-out: M.I.C.
Procedure: as §4, §5, §6, §7

[24] = system: Bord. bronchis. 4.617; assay: M.I.C. in vitro, nutrient agar dilution; assay type: cell-based; conditions: 18 h, read-out: M.I.C.
Procedure: as §4, §5, §6, §7

[25] = system: Esch. coli 54.127 O.M.S.; assay: M.I.C. in vitro, nutrient agar dilution; assay type: cell-based; conditions: Escherichia coli, 18 h, read-out: M.I.C.
Procedure: as §4, §5, §6, §7

[26] = system: Strepto D.M. 19; assay: M.I.C. in vitro, nutrient agar dilution; assay type: cell-based; conditions: 18 h, read-out: M.I.C.
Procedure: as §4, §5, §6, §7

Which ED50 [1] does the source give for CCn1cc(C(=O)O)c(=O)c2cc(F)c(N3CCN(C)CC3)cc21 [Example 20, 1-Ethyl-6-fluoro-7-(4-methylpiperazinyl)-4-oxo-1,4-dihydro-quinoline-3-carboxylic acid] here?
The ED50 was 2.9 mg/kg.

And the ED90 [1]?
Its ED90 is 9.3 mg/kg.

And the ED50 [2]?
The ED50 was 1.8 mg/kg.

And the ED90 [2]?
Its ED90 is 2.8 mg/kg.

What about the ED50 [3] of the same compound?
Its ED50 is 65 mg/kg.

What about the ED90 [3] of the same compound?
Its ED90 is 103 mg/kg.

And the ED50 [4]?
The ED50 was 7.8 mg/kg.

What about the ED90 [4] of the same compound?
Its ED90 is 11.5 mg/kg.

Which results are given for CCn1cc(C(=O)O)c(=O)c2cc(Cl)c(N3CCN(Cc4ccccc4)CC3)cc21 [Example 5, 7-(4-Benzylpiperazinyl)-6-chloro-1-ethyl-4-oxo-1,4-dihydro-quinoline-3-carboxylic acid]?
MIC ([5]; Table 2, Salm. typhi 0901 (Gram negative)): 6.2 µg/mL (≈ 14.6 µM); MIC ([6]; Table 2, Pr. mirabilis Nig (Gram negative)): 6.2 µg/mL (≈ 14.6 µM); MIC ([7]; Table 2, S. enteritidis Danysz (Gram negative)): 6.2 µg/mL (≈ 14.6 µM); MIC ([8]; Table 2, Staph. 9.144 (Gram positive)): 0.8 µg/mL (≈ 1.88 µM); MIC ([9]; Table 2, Sh. sonnei I.P.S. (Gram negative)): 1.6 µg/mL (≈ 3.76 µM); MIC ([10]; Table 2, Berratia (Gram negative)): 3.1 µg/mL (≈ 7.28 µM); MIC ([11]; Table 2, Esch. coli 95 I.S.M. (Gram negative)): 3.1 µg/mL (≈ 7.28 µM); MIC ([12]; Table 2, Pr. vulgaris 12-53 (Gram negative)): 6.2 µg/mL (≈ 14.6 µM); MIC ([13]; Table 2, Esch. coli 111 B4 (Gram negative)): 3.1 µg/mL (≈ 7.28 µM); MIC ([14]; Table 2, Ps. aeruginosa A.22 (Gram negative)): 25 µg/mL (≈ 58.7 µM); MIC ([15]; Table 2, Staph. 209 P (Gram positive)): 0.2 µg/mL (≈ 0.47 µM); MIC ([16]; Table 2, Pr. morganii A.236 (Gram negative)): 3.1 µg/mL (≈ 7.28 µM); MIC ([17]; Table 2, Klebs. pneum. 10.031 (Gram negative)): 0.4 µg/mL (≈ 0.939 µM); MIC ([18]; Table 2, B. subtilis (Gram positive)): 0.4 µg/mL (≈ 0.939 µM); MIC ([19]; Table 2, Ps. aeruginosa 72.345 (Gram negative)): 25 µg/mL (≈ 58.7 µM); MIC ([20]; Table 2, S. oranienburg 1066 (Gram negative)): 100 µg/mL (≈ 235 µM); MIC ([21]; Table 2, Providentia 0223 (Gram negative)): 50 µg/mL (≈ 117 µM); MIC ([22]; Table 2, Strepto A 561 (Gram positive)): 6.2 µg/mL (≈ 14.6 µM); MIC ([23]; Table 2, Arizona 6.211 (Gram negative)): 3.1 µg/mL (≈ 7.28 µM); MIC ([24]; Table 2, Bord. bronchis. 4.617 (Gram negative)): 12.5 µg/mL (≈ 29.3 µM); MIC ([25]; Table 2, Esch. coli 54.127 O.M.S. (Gram negative)): 6.2 µg/mL (≈ 14.6 µM); MIC ([26]; Table 2, Strepto D.M. 19 (Gram positive)): 6.2 µg/mL (≈ 14.6 µM)

C=CCn1cc(C(=O)O)c(=O)c2cc(F)c(N3CCN(C)CC3)cc21 [Example 34, 1-Allyl-6-fluoro-7-(4-methylpiperazinyl)-4-oxo-1,4-dihydro-quinoline-3-carboxylic acid] was tested. Which MIC ([5]; Table III, Salm. typhi 0901) did it give?
The MIC was 0.1 µg/mL (≈ 0.29 µM).

And the MIC ([6]; Table III, Pr. mirabilis Nig)?
Its MIC is 0.8 to 1.6 µg/mL (≈ 2.32 to 4.63 µM).

What about the MIC ([7]; Table III, S. enteritidis Danysz) of the same compound?
Its MIC is 0.4 to 0.8 µg/mL (≈ 1.16 to 2.32 µM).

What about the MIC ([8]; Table III, Staph. 9.144) of the same compound?
The MIC was 1.6 µg/mL (≈ 4.63 µM).

And the MIC ([9]; Table III, Sh. sonnei I.P.S.)?
The MIC was 0.2 µg/mL (≈ 0.579 µM).

What about the MIC ([10]; Table III) of the same compound?
The MIC was 0.05 to 0.4 µg/mL (≈ 0.145 to 1.16 µM).

What about the MIC ([11]; Table III, Esch. coli 95 I.S.M.) of the same compound?
The MIC was 0.4 µg/mL (≈ 1.16 µM).

What about the MIC ([12]; Table III, Pr. vulgaris 12-53) of the same compound?
The MIC was 0.2 µg/mL (≈ 0.579 µM).

And the MIC ([13]; Table III, Esch. coli 111 B4)?
The MIC was 0.4 µg/mL (≈ 1.16 µM).

What about the MIC ([14]; Table III, Ps. aeruginosa A.22) of the same compound?
Its MIC is 3.1 µg/mL (≈ 8.98 µM).

And the MIC ([15]; Table III, Staph. 209 P)?
The MIC was 0.8 µg/mL (≈ 2.32 µM).

What about the MIC ([16]; Table III, Pr. morganii A. 236) of the same compound?
Its MIC is 0.05 to 0.2 µg/mL (≈ 0.145 to 0.579 µM).

And the MIC ([17]; Table III, Klebs. pneum. 10.031)?
The MIC was 0.1 µg/mL (≈ 0.29 µM).

And the MIC ([18]; Table III, B. Subtilis)?
Its MIC is 0.4 µg/mL (≈ 1.16 µM).

And the MIC ([19]; Table III, Pd. aeruginosa 72.345)?
The MIC was 3.1 µg/mL (≈ 8.98 µM).

What about the MIC ([20]; Table III, S. oranienburg 1066) of the same compound?
The MIC was 12.5 µg/mL (≈ 36.2 µM).

What about the MIC ([21]; Table III, Providentia 0223) of the same compound?
The MIC was 12.5 µg/mL (≈ 36.2 µM).

And the MIC ([22]; Table III, Strepto A 561)?
Its MIC is 50 µg/mL (≈ 145 µM).

And the MIC ([23]; Table III, Arizona 6.211)?
The MIC was 0.4 µg/mL (≈ 1.16 µM).

And the MIC ([24]; Table III, Bord. bronchis. 4.617)?
Its MIC is 0.2 µg/mL (≈ 0.579 µM).

What about the MIC ([25]; Table III, Esch. coli 54.127 O.M.S.) of the same compound?
The MIC was 0.4 µg/mL (≈ 1.16 µM).

What about the MIC ([26]; Table III, Strepto D.M. 19) of the same compound?
Its MIC is 6.2 to 12.5 µg/mL (≈ 18 to 36.2 µM).
